Experimental data taken from the Deep4Chem optical property database.
Values belong to the compound of their own block, whether it stands above or below them.

Experiment: photoluminescence quantum yield (fraction); solvent given as SMILES

Structure (SMILES): N#Cc1nc(N(Cc2ccc(Cl)cc2)Cc2ccc(Cl)cc2)c(C#N)nc1N(Cc1ccc(Cl)cc1)Cc1ccc(Cl)cc1
- photoluminescence quantum yield (in ClC(Cl)Cl): 0.71

Structure (SMILES): c1ccc2cc3c(cc2c1)-c1cccc2cc4ccccc4c-3c12
- photoluminescence quantum yield (in CCCCCCC): 0.52

Structure (SMILES): CCn1c2ccc(-c3ccc(-c4cccs4)s3)cc2c2cc(-c3ccc(-c4cccs4)s3)ccc21
- photoluminescence quantum yield (in ClCCl): 0.168

Structure (SMILES): CC(C)(C)OC(=O)NC(Cc1ccccc1)C(=O)OCc1ccc2c3cccc4cccc(c5cccc1c52)c43 (stereo unspecified)
- photoluminescence quantum yield (in CCO): 0.86

Structure (SMILES): CC(C)c1cc(C(C)C)c(B2c3ccccc3Oc3cc(N4c5ccccc5C5(c6ccccc6-c6ccccc65)c5ccccc54)ccc32)c(C(C)C)c1
- photoluminescence quantum yield (in Cc1ccccc1): 0.76

Structure (SMILES): N#Cc1cnc(-c2c3ccccc3cc3ccccc23)nc1
- photoluminescence quantum yield (in CCO): 0.07
- photoluminescence quantum yield (in ClCCl): 0.07

Structure (SMILES): F[B-]1(F)n2c(/C=C/c3ccc(C(=C(c4ccccc4)c4ccccc4)c4ccccc4)cc3)ccc2C(c2ccccc2)=C2C=CC(/C=C/c3ccc(C(=C(c4ccccc4)c4ccccc4)c4ccccc4)cc3)=[N+]21
- photoluminescence quantum yield (in C1CCOC1): 0.42

Structure (SMILES): F[Si-](F)(c1ccccc1)(c1ccccc1)c1c2ccccc2cc2ccccc12
- photoluminescence quantum yield (in C1CCOC1): 0.76

Structure (SMILES): Cc1ccc(N(c2ccc(C)cc2)c2c3ccccc3c(N(c3ccc(C)cc3)c3ccc(C)cc3)c3ccccc23)cc1
- photoluminescence quantum yield (in Cc1ccccc1): 0.95

Structure (SMILES): COc1ccc(C2=CC(c3ccc(OC)cc3)=[O+][B-](C(C)=O)(C(C)=O)O2)cc1
- photoluminescence quantum yield (in CC#N): 0.7
- photoluminescence quantum yield (in ClC(Cl)(Cl)Cl): 1

Structure (SMILES): N#Cc1ccc(-n2c(-c3ccc(-c4ccc(-c5nc6c7ccccc7c7ccccc7c6n5-c5ccc(C#N)c6ccccc56)c5ccccc45)c4ccccc34)nc3c4ccccc4c4ccccc4c32)c2ccccc12
- photoluminescence quantum yield (in ClCCl): 0.9

Structure (SMILES): C[Si](C)(C)O[Si]1(O[Si](C)(C)C)n2c3c4ccccc4c2/N=C2N=C(/N=c4/c5ccccc5/c(n41)=N/C1=NC(=N\3)/c3ccccc31)c1ccccc1\2
- photoluminescence quantum yield (in CN(C)C=O): 0.42

Structure (SMILES): COc1ccc(/C=C/C2=[O+][B-](F)(F)OC(/C=C/c3ccc(OC)cc3)=C2c2ccccc2)cc1
- photoluminescence quantum yield (in CC#N): 0.42
- photoluminescence quantum yield (in CC(C)=O): 0.41
- photoluminescence quantum yield (in CCOC(C)=O): 0.34
- photoluminescence quantum yield (in CCOCC): 0.27
- photoluminescence quantum yield (in ClC(Cl)(Cl)Cl): 0.24
- photoluminescence quantum yield (in ClCCl): 0.41

Structure (SMILES): c1ccc(-c2nc(-c3cccs3)[nH]c2-c2ccccc2)cc1
- photoluminescence quantum yield (in CC#N): 0.39

Structure (SMILES): COc1ccc(C(=O)NC(C)(C)C)c2c1ccc1c3ccccc3c3ccccc3c12
- photoluminescence quantum yield (in ClCCl): 0.1

Structure (SMILES): CCCCCCC(CCCCCC)n1c(=O)c2c3ccc4cccc5c6cccc7ccc(c2c1=O)c(c76)c3c45
- photoluminescence quantum yield (in C1CCCCC1): 0.32
- photoluminescence quantum yield (in CC#N): 0.33
- photoluminescence quantum yield (in CC(C)=O): 0.27
- photoluminescence quantum yield (in CCCCCC): 0.32
- photoluminescence quantum yield (in CCO): 0.3
- photoluminescence quantum yield (in CCOCC): 0.34
- photoluminescence quantum yield (in CS(C)=O): 0.44
- photoluminescence quantum yield (in Cc1ccccc1): 0.42
- photoluminescence quantum yield (in ClC(Cl)(Cl)Cl): 0.37
- photoluminescence quantum yield (in ClC(Cl)Cl): 0.35

Structure (SMILES): CC(=O)c1c2c(cc3ccc(N(C)C)cc13)CCC2
- photoluminescence quantum yield (in C1CCCCC1): 0.45
- photoluminescence quantum yield (in C1CCOC1): 0.75
- photoluminescence quantum yield (in C1COCCO1): 0.46
- photoluminescence quantum yield (in CC#N): 0.99
- photoluminescence quantum yield (in CCO): 0.05
- photoluminescence quantum yield (in CS(C)=O): 0.85
- photoluminescence quantum yield (in Cc1ccccc1): 0.62
- photoluminescence quantum yield (in ClC(Cl)Cl): 0.77
- photoluminescence quantum yield (in ClCCl): 0.99

Structure (SMILES): COc1ccc(/C=C/C(F)(F)F)c(N)c1
- photoluminescence quantum yield (in C1CCOC1): 0.32

Structure (SMILES): N#CC(C#N)=Cc1nc2ccc(C#Cc3ccc(N(c4ccccc4)c4ccccc4)cc3)cc2s1
- photoluminescence quantum yield (in Cc1ccccc1): 0.07

Structure (SMILES): CN(C)c1ccc(C2=[N+]3C(=Nc4c(-c5ccc(O)cc5)cc(-c5ccc(N(C)C)cc5)n4[B-]3(F)F)C(c3ccc(O)cc3)=C2)cc1
- photoluminescence quantum yield (in C1CCOC1): 0.04
- photoluminescence quantum yield (in Cc1ccccc1): 0.1

Structure (SMILES): CC(C)(C)c1ccc(C2=C(Br)C3=C(c4ccccc4)c4c(Br)c(-c5ccc(C(C)(C)C)cc5)c(-c5ccc(C(C)(C)C)cc5)n4[B-](F)(F)[N+]3=C2c2ccc(C(C)(C)C)cc2)cc1
- photoluminescence quantum yield (in C1CCCCC1): 0.13
- photoluminescence quantum yield (in C1CCOC1): 0.11
- photoluminescence quantum yield (in CC#N): 0.03
- photoluminescence quantum yield (in Cc1ccccc1): 0.1
- photoluminescence quantum yield (in ClCCl): 0.09

Structure (SMILES): CCn1c2c(-c3cccs3)cc(C(C)(C)C)cc2c2cc(C(C)(C)C)cc(-c3cccs3)c21
- photoluminescence quantum yield (in ClCCl): 0.064

Structure (SMILES): CC(C)(C)c1ccc(-c2ccc3c(-c4ccc(C(C)(C)C)c5ccccc45)cc4c5cc(-c6ccc(C(C)(C)C)c7ccccc67)ccc5c(-c5ccc(C(C)(C)C)c6ccccc56)cc4c3c2)c2ccccc12
- photoluminescence quantum yield (in ClCCl): 0.72

Structure (SMILES): COC(=O)c1ccc(-c2cc3ccc4cccc5ccc(c2)c3c45)cc1
- photoluminescence quantum yield (in Cc1ccccc1): 0.43

Structure (SMILES): CN(C)c1ccc(C#Cc2ccc3c(N(C)C)cc(-c4ccccc4)cc3c2)cc1
- photoluminescence quantum yield (in ClCCl): 0.76

Structure (SMILES): C1=Cc2ccc(N(c3ccccc3)c3ccccc3)cc2Cc2cc(N(c3ccccc3)c3ccccc3)ccc21
- photoluminescence quantum yield (in ClCCl): 0.99

Structure (SMILES): C(=C1c2ccccc2-c2ccccc21)c1ccc(-c2ccc(C=C3c4ccccc4-c4ccccc43)cc2)cc1
- photoluminescence quantum yield (in C1CCOC1): 0.0015

Structure (SMILES): c1ccc2c(C3=C(c4cccc5ccccc45)c4cccc5c4c(cc4nc6ccccc6nc45)O3)cccc2c1
- photoluminescence quantum yield (in ClCCl): 0.32

Structure (SMILES): C(=C\c1ccc(Nc2ccccc2)cc1)/c1ccccc1
- photoluminescence quantum yield (in CC#N): 0.3
- photoluminescence quantum yield (in CCCCCC): 0.51

Structure (SMILES): CN(C)c1ccc(/C=C/c2cc(/C=C/c3ccc(N(C)C)cc3)nc(N)n2)cc1
- photoluminescence quantum yield (in Cc1ccccc1): 0.65
- photoluminescence quantum yield (in ClC(Cl)Cl): 0.55

Structure (SMILES): CCOC(=O)c1c2c3c(ccc([N+](=O)[O-])c3c3cc4c(cc13)[Si](C)(C)O[Si]4(C)C)N(C)C2=O
- photoluminescence quantum yield (in CC#N): 0.3

Structure (SMILES): O=C1CCCC2=C1C(c1cccc(Cl)c1)c1c(c3ccccc3oc1=O)N2 (stereo unspecified)
- photoluminescence quantum yield (in CS(C)=O): 0.6

Structure (SMILES): CCN(CC)c1ccc2cc3ccc(=[N+](CC)CC)cc-3oc2c1
- photoluminescence quantum yield (in CC#N): 0.85
- photoluminescence quantum yield (in CCO): 0.95
- photoluminescence quantum yield (in CN(C)C=O): 0.74
- photoluminescence quantum yield (in O): 0.94

Structure (SMILES): CCCCC(CC)CN1C(=O)c2cccc3c(C#Cc4ccc(N(c5ccccc5)c5ccccc5)cc4)ccc(c23)C1=O (stereo unspecified)
- photoluminescence quantum yield (in C1CCCCC1): 0.66
- photoluminescence quantum yield (in C1CCOC1): 0.62
- photoluminescence quantum yield (in CC#N): 0.026
- photoluminescence quantum yield (in Cc1ccccc1): 0.89
- photoluminescence quantum yield (in ClC(Cl)Cl): 0.51

Now from value to compound:

- photoluminescence quantum yield (in ClCCl): 0.61
Structure (SMILES): CCn1c2cc(-c3cccs3)ccc2c2ccc(-c3cccs3)cc21

- photoluminescence quantum yield (in CC#N): 0.24
Structure (SMILES): Fc1ccc(/C=C/c2nc3c4ccccc4c4ccccc4c3o2)cc1

- photoluminescence quantum yield (in ClCCl): 0.09
Structure (SMILES): COc1cc2c3sc4ccccc4c3c3cncnc3c2c(OC)c1OC

- photoluminescence quantum yield (in CC#N): 0.63
- photoluminescence quantum yield (in ClCCl): 0.83
Structure (SMILES): COC(=O)c1cc(=O)n(C)c2cc(-c3ccc(Oc4ccccc4)cc3)sc12

- photoluminescence quantum yield (in ClC(Cl)Cl): 0.18
Structure (SMILES): COc1ccc(-c2nc3ccccc3nc2-c2ccc(OC)cc2)cc1

- photoluminescence quantum yield (in ClCCl): 0.23
Structure (SMILES): COCCOCCOCCOCC(COCCOCCOCCOC)Oc1cc(/C=C/c2ccc(/C=C(\C#N)C(=O)c3ccccc3)cc2)c(OC(COCCOCCOCCOC)COCCOCCOCCOC)cc1/C=C/c1ccc(/C=C(\C#N)C(=O)c2ccccc2)cc1

- photoluminescence quantum yield (in CCO): 0.1
Structure (SMILES): Nc1cc2nc3cc(Cl)c(Cl)cc3nc2cc1N

- photoluminescence quantum yield (in ClC(Cl)Cl): 0.36
Structure (SMILES): CC1=c2cc3c(C)c4n(c3cc2=[N+]2C1=Cc1c3ccccc3c(C)n1[B-]2(F)F)[B-](F)(F)[N+]1=C(C)c2ccccc2C1=C4

- photoluminescence quantum yield (in ClCCl): 0.0013
Structure (SMILES): CC(C)(C)c1cc(-c2cc3c(cc(-c4cc(C(C)(C)C)cc(C(C)(C)C)c4)n3-c3ccc(C(=C(c4ccccc4)c4ccccc4)c4ccccc4)cc3)n2-c2ccc(C(=C(c3ccccc3)c3ccccc3)c3ccccc3)cc2)cc(C(C)(C)C)c1

- photoluminescence quantum yield (in ClCCl): 0.24
Structure (SMILES): FC(F)(F)c1ccc(C#Cc2ncc(-c3ccccc3)o2)cc1

- photoluminescence quantum yield (in CC1CCCCC1): 0.41
- photoluminescence quantum yield (in CC#N): 0.04
Structure (SMILES): C(=C\c1c2ccccc2cc2ccccc12)/c1ccc2ccccc2n1

- photoluminescence quantum yield (in ClCCl): 0
Structure (SMILES): COc1ccc2cc(C3=[N+]4C(=Nc5c(-c6ccc7ccccc7c6)c(Br)c(-c6ccc7cc(OC)ccc7c6)n5[B-]4(F)F)C(c4ccc5ccccc5c4)=C3Br)ccc2c1

- photoluminescence quantum yield (in C1CCCCC1): 0.5
- photoluminescence quantum yield (in CC#N): 0.017
Structure (SMILES): C[Si](C)(c1cccc2ccccc12)[Si](C)(C)[Si](C)(C)[Si](C)(C)[Si](C)(C)[Si](C)(C)c1c2ccccc2cc2ccccc12

- photoluminescence quantum yield (in ClC(Cl)Cl): 0.131
Structure (SMILES): F[B-]1(F)OC(c2ccccc2)=Cc2c3ccccc3c3ccccc3[n+]21

- photoluminescence quantum yield (in ClC(Cl)Cl): 0.11
Structure (SMILES): CCCCN1C(=O)c2cc(Br)c3c4c(Br)c(Br)c5c6c(cc(Br)c(c7c(Br)c(Br)c(c2c37)C1=O)c64)C(=O)N(CCCC)C5=O

- photoluminescence quantum yield (in CO): 0.0013
Structure (SMILES): C(/C=C/C1=[NH+]c2cccc3cccc1c23)=c1/[nH]c2cccc3cccc1c32

- photoluminescence quantum yield (in C1CCCCC1): 0.89
- photoluminescence quantum yield (in CCOC(C)=O): 0.93
- photoluminescence quantum yield (in CO): 0.86
Structure (SMILES): Cc1ccccc1C1=C2C=c3c(oc4ccc(C(C)(C)C)cc34)=[N+]2[B-](F)(F)n2c1cc1c3cc(C(C)(C)C)ccc3oc12

- photoluminescence quantum yield (in ClCCl): 0.96
Structure (SMILES): O=c1c2ccccc2nc2ccccn12

- photoluminescence quantum yield (in C1CCCCC1): 0.98
- photoluminescence quantum yield (in CCOC(C)=O): 0.11
Structure (SMILES): CC1=[N+]2C(=Cc3ccc(C)n3[B-]2(F)F)C=C1c1cc2n(c1)[B-](F)(F)[N+]1=CC=CC1=C2c1c(C)cc(C)cc1C

- photoluminescence quantum yield (in CC#N): 0.012
- photoluminescence quantum yield (in CO): 0.01
- photoluminescence quantum yield (in O): 0.021
Structure (SMILES): CN(C)CCCN1c2ccccc2CCc2ccccc21

- photoluminescence quantum yield (in ClCCl): 0.43
Structure (SMILES): Cc1ccc(C2=C(c3ccc(C)cc3)c3cccc4c3c(cc3nc5ccccc5nc34)O2)cc1

- photoluminescence quantum yield (in ClCCl): 0.047
Structure (SMILES): CCOC(=O)/N=c1/oc2ccc(OC)cc2cc1C#N

- photoluminescence quantum yield (in ClCCl): 0.31
Structure (SMILES): CCCCc1ccc2c(c1)c1ccc3cccc4c3c1c1c2c2cccc3ccc5c6cc(CCCC)ccc6c4c1c5c32

- photoluminescence quantum yield (in ClCCl): 0.75
Structure (SMILES): CCCCn1c(-c2ccc(-c3nnc(-c4ccc5ccccc5c4)o3)cc2)nc2c3ccccc3c3ccccc3c21

- photoluminescence quantum yield (in C1CCOC1): 0.54
- photoluminescence quantum yield (in CC#N): 0.03
- photoluminescence quantum yield (in ClC(Cl)Cl): 0.5
- photoluminescence quantum yield (in ClCCl): 0.46
Structure (SMILES): COc1cc(/C=C/c2nc3ccccc3s2)c(OC)cc1/C=C/c1nc(C)nc(/C=C/c2cc(OC)c(/C=C/c3nc4ccccc4s3)cc2OC)n1

- photoluminescence quantum yield (in CC#N): 0.01
Structure (SMILES): Fc1nc(F)c(F)c(/C=C2/C(c3c(F)c(F)nc(F)c3F)=Cc3ccccc32)c1F

- photoluminescence quantum yield (in CC#N): 0.08
- photoluminescence quantum yield (in ClCCl): 0.82
Structure (SMILES): COC(=O)c1cc(=O)n(C)c2cc(-c3ccc(N(C)C)cc3)sc12
